{
  "source": "patent US8129552B2",
  "about": "“Phospholipids with unsaturated alkyl and acyl chains” (Max-Planck-Gesellschaft zur Forderung der Wissenschaften …, priority 1998, dated 2012)",
  "key": {"[1]": {"tested_on": "cell culture", "conditions": "cited from earlier work"}, "[2]": {"tested_on": "complex organisms", "conditions": "in vivo; cited from earlier work"}, "[3]": {"tested_on": "tumor", "assay": "Antitumor activity of alkylphosphocholines: T/C and median tumor volume after therapy (Example 5)", "type": "in vivo", "conditions": "for T/C (quotient of the median tumor volume in the treated and the control group × 100): evaluation after therapy for 5 weeks", "source_text": "Comparison of the Known Antitumor Active Ingredient Erucylphosphocholine with Active Ingredients of the Invention\nComparison of a compound not of the invention (erucylphosphocholine) with two active ingredients of the invention is shown in Table 1."}, "[4]": {"tested_on": "tumor", "conditions": "evaluation after therapy for 5 weeks, cited from earlier work"}, "[5]": {"conditions": "rats; cited from earlier work"}, "[6]": {"conditions": "oral administration; cited from earlier work"}},
  "note": "Where two headings read alike, the source gives them in different places.",
  "data": [
    {"compound": "CCCCCCCCCCCCCCCCCCOCC(COP(=O)([O-])OCC[N+](C)(C)C)OC", "note": "(racemic) [ET18-OCH3, 1-O-octadecyl-2-O-methyl-rac-glycero-3-phosphocholine]", "values": [
      {"measurement": "antineoplastic activity in cell-culture experiments", "setting": "[1]", "value": "excellent antineoplastic activity"},
      {"measurement": "activity in complex organisms", "setting": "[2]", "value": "virtually inactive"}
    ]},
    {"compound": "CCCCCCCCCCC/C=C\\CCCCCCCCCOP(=O)([O-])OCC[N+](C)(C)C", "note": "[(Z)-10-Docosenyl-1-PC, (Z)-10-docosenyl-1-phosphocholine]", "values": [
      {"measurement": "Median tumor volume, 2 weeks later", "setting": "[3]; dose 42 μmol/kg", "value": 4.5, "unit": "cm^3"},
      {"measurement": "Median tumor volume, End of therapy", "setting": "[3]; dose 42 μmol/kg", "value": 4.0, "unit": "cm^3"},
      {"measurement": "Median tumor volume, 2 weeks later", "setting": "[3]; dose 84 μmol/kg", "value": 3.4, "unit": "cm^3"},
      {"measurement": "Median tumor volume, End of therapy", "setting": "[3]; dose 84 μmol/kg", "value": 1.2, "unit": "cm^3"},
      {"measurement": "Median tumor volume, 2 weeks later", "setting": "[3]; dose 170 μmol/kg", "value": 0.2, "unit": "cm^3"},
      {"measurement": "Median tumor volume, End of therapy", "setting": "[3]; dose 170 μmol/kg", "value": 0.2, "unit": "cm^3"},
      {"measurement": "Median tumor volume, 2 weeks later", "setting": "[3]; dose 256 μmol/kg", "value": 0.2, "unit": "cm^3"},
      {"measurement": "Median tumor volume, End of therapy", "setting": "[3]; dose 256 μmol/kg", "value": 0.1, "unit": "cm^3"},
      {"measurement": "T/C (quotient of the median tumor volume in the treated and the control group × 100)", "setting": "[3]; weekly dose 42 μmol/kg", "value": 9, "unit": "%"},
      {"measurement": "T/C (quotient of the median tumor volume in the treated and the control group × 100)", "setting": "[3]; weekly dose 170 μmol/kg", "value": 0.5, "unit": "%"},
      {"measurement": "T/C (quotient of the median tumor volume in the treated and the control group × 100)", "setting": "[3]; weekly dose 256 μmol/kg", "value": 0.2, "unit": "%"}
    ]},
    {"compound": "C=CCCCCCCCC/C=C\\CCCCCCCCCCOP(=O)([O-])OCC[N+](C)(C)C", "note": "[(Z)-11,21-Docosadienyl-1-PC, (Z)-11,21-docosadienyl-1-phosphocholine]", "values": [
      {"measurement": "Median tumor volume, 2 weeks later", "setting": "[3]; dose 42 μmol/kg", "value": 2.5, "unit": "cm^3"},
      {"measurement": "Median tumor volume, End of therapy", "setting": "[3]; dose 42 μmol/kg", "value": 1.5, "unit": "cm^3"},
      {"measurement": "Median tumor volume, 2 weeks later", "setting": "[3]; dose 84 μmol/kg", "value": 2.9, "unit": "cm^3"},
      {"measurement": "Median tumor volume, End of therapy", "setting": "[3]; dose 84 μmol/kg", "value": 0.9, "unit": "cm^3"},
      {"measurement": "Median tumor volume, 2 weeks later", "setting": "[3]; dose 170 μmol/kg", "value": 0.5, "unit": "cm^3"},
      {"measurement": "Median tumor volume, End of therapy", "setting": "[3]; dose 170 μmol/kg", "value": 0.4, "unit": "cm^3"},
      {"measurement": "T/C (quotient of the median tumor volume in the treated and the control group × 100)", "setting": "[3]; weekly dose 42 μmol/kg", "value": 8, "unit": "%"},
      {"measurement": "T/C (quotient of the median tumor volume in the treated and the control group × 100)", "setting": "[3]; weekly dose 170 μmol/kg", "value": 2, "unit": "%"}
    ]},
    {"compound": "CCCCCCCC/C=C\\CCCCCCCCCCCOP(=O)([O-])OCC[N+](C)(C)C", "note": "[(Z)-12-Heneicosenyl-1-phosphocholine, (Z)-12-heneicosenyl-1-phosphocholine]", "values": [
      {"measurement": "Median tumor volume, 2 weeks later", "setting": "[3]; dose 42 μmol/kg", "value": 4.5, "unit": "cm^3"},
      {"measurement": "Median tumor volume, End of therapy", "setting": "[3]; dose 42 μmol/kg", "value": 3.4, "unit": "cm^3"},
      {"measurement": "Median tumor volume, 2 weeks later", "setting": "[3]; dose 84 μmol/kg", "value": 1.2, "unit": "cm^3"},
      {"measurement": "Median tumor volume, End of therapy", "setting": "[3]; dose 84 μmol/kg", "value": 0.3, "unit": "cm^3"},
      {"measurement": "Median tumor volume, 2 weeks later", "setting": "[3]; dose 170 μmol/kg", "value": 0.1, "unit": "cm^3"},
      {"measurement": "Median tumor volume, End of therapy", "setting": "[3]; dose 170 μmol/kg", "value": 0.1, "unit": "cm^3"},
      {"measurement": "Median tumor volume, 2 weeks later", "setting": "[3]; dose 256 μmol/kg", "value": 0.8, "unit": "cm^3"},
      {"measurement": "Median tumor volume, End of therapy", "setting": "[3]; dose 256 μmol/kg", "value": 0.2, "unit": "cm^3"}
    ]},
    {"compound": "CCCCC/C=C\\CCCCCCCCCCCCCCCOP(=O)([O-])OCC[N+](C)(C)C", "note": "[(Z)-16-Docosenyl-1-phosphocholine, (Z)-16-docosenyl-1-phosphocholine]", "values": [
      {"measurement": "Median tumor volume, End of therapy", "setting": "[3]; dose 42 μmol/kg", "value": 26.9, "unit": "cm^3"},
      {"measurement": "Median tumor volume, 2 weeks later", "setting": "[3]; dose 84 μmol/kg", "value": 7.6, "unit": "cm^3"},
      {"measurement": "Median tumor volume, End of therapy", "setting": "[3]; dose 84 μmol/kg", "value": 2.5, "unit": "cm^3"},
      {"measurement": "Median tumor volume, 2 weeks later", "setting": "[3]; dose 170 μmol/kg", "value": 0.4, "unit": "cm^3"},
      {"measurement": "Median tumor volume, End of therapy", "setting": "[3]; dose 170 μmol/kg", "value": 0.2, "unit": "cm^3"}
    ]},
    {"compound": "CCCCCCC/C=C\\CCCC/C=C\\CCCCCOP(=O)([O-])OCC[N+](C)(C)C", "note": "[(Z,Z)-6,12-Eicosadienyl-1-PC, (Z,Z)-6,12-eicosadienyl-1-phosphocholine]", "values": [
      {"measurement": "Median tumor volume, 2 weeks later", "setting": "[3]; dose 42 μmol/kg", "value": 13.9, "unit": "cm^3"},
      {"measurement": "Median tumor volume, End of therapy", "setting": "[3]; dose 42 μmol/kg", "value": 10, "unit": "cm^3"},
      {"measurement": "Median tumor volume, 2 weeks later", "setting": "[3]; dose 84 μmol/kg", "value": 13.9, "unit": "cm^3"},
      {"measurement": "Median tumor volume, End of therapy", "setting": "[3]; dose 84 μmol/kg", "value": 3.2, "unit": "cm^3"},
      {"measurement": "Median tumor volume, 2 weeks later", "setting": "[3]; dose 170 μmol/kg", "value": 1.9, "unit": "cm^3"},
      {"measurement": "Median tumor volume, End of therapy", "setting": "[3]; dose 170 μmol/kg", "value": 0.4, "unit": "cm^3"},
      {"measurement": "Median tumor volume, 2 weeks later", "setting": "[3]; dose 256 μmol/kg", "value": 0, "unit": "cm^3"},
      {"measurement": "Median tumor volume, End of therapy", "setting": "[3]; dose 256 μmol/kg", "value": 0, "unit": "cm^3"}
    ]},
    {"compound": "CCCCC/C=C\\CCCC/C=C\\CCCCCCCCCOP(=O)([O-])OCC[N+](C)(C)C", "note": "[(Z,Z)-10,16-Docosadienyl-1-PC, (Z,Z)-10,16-docosadienyl-1-phosphocholine]", "values": [
      {"measurement": "Median tumor volume, 2 weeks later", "setting": "[3]; dose 42 μmol/kg", "value": 11.4, "unit": "cm^3"},
      {"measurement": "Median tumor volume, End of therapy", "setting": "[3]; dose 42 μmol/kg", "value": 7.5, "unit": "cm^3"},
      {"measurement": "Median tumor volume, 2 weeks later", "setting": "[3]; dose 84 μmol/kg", "value": 0.6, "unit": "cm^3"},
      {"measurement": "Median tumor volume, End of therapy", "setting": "[3]; dose 84 μmol/kg", "value": 0.6, "unit": "cm^3"},
      {"measurement": "Median tumor volume, 2 weeks later", "setting": "[3]; dose 170 μmol/kg", "value": 0.7, "unit": "cm^3"},
      {"measurement": "Median tumor volume, End of therapy", "setting": "[3]; dose 170 μmol/kg", "value": 0.5, "unit": "cm^3"}
    ]},
    {"compound": "CCCCCCCC/C=C\\CCCCCCCCCCCCOP(=O)([O-])OCC[N+](C)(C)C", "note": "[Erucylphosphocholine, erucylphosphocholine]", "values": [
      {"measurement": "T/C (quotient of the median tumor volume in the treated and the control group × 100)", "setting": "[4]; weekly dose 90 μmol/kg", "value": 31, "unit": "%"},
      {"measurement": "T/C (quotient of the median tumor volume in the treated and the control group × 100)", "setting": "[4]; weekly dose 180 μmol/kg", "value": 6, "unit": "%"},
      {"measurement": "T/C (quotient of the median tumor volume in the treated and the control group × 100)", "setting": "[4]; weekly dose 360 μmol/kg", "value": "<0.1", "unit": "%"}
    ]},
    {"compound": "CCCCCCCCCCCCCCCCOP(=O)([O-])OCC[N+](C)(C)C", "note": "[HePC, hexadecylphosphocholine]", "values": [
      {"measurement": "adverse effect of direct intravenous administration of a solution", "setting": "[5]", "value": "thrombophlebitis"},
      {"measurement": "toxicity in clinical studies", "setting": "[6]", "value": "toxicities in the gastrointestinal tract"}
    ]}
  ]
}
